Patent US10941132B2, “Pyrazole derivatives” (HUA MEDICINE (SHANGHAI) Ltd., priority 2016, dated 2021)

These compounds were tested against T1, recombinant rat mGluR5 (Rattus norvegicus, UniProt P31424) (assay: Functional calcium flux assay (FLIPR), antagonist evaluation against glutamate-evoked [Ca2+]i increase). Settings: Table 1; HEK293 cells stably expressing recombinant rat mGluR5; 15 min incubation of test compound, then submaximal glutamate; read-out: IC50 value (FLIPR assay).
T1 construct: expressed in transfected cells
T1 sequence (P31424 21-1203): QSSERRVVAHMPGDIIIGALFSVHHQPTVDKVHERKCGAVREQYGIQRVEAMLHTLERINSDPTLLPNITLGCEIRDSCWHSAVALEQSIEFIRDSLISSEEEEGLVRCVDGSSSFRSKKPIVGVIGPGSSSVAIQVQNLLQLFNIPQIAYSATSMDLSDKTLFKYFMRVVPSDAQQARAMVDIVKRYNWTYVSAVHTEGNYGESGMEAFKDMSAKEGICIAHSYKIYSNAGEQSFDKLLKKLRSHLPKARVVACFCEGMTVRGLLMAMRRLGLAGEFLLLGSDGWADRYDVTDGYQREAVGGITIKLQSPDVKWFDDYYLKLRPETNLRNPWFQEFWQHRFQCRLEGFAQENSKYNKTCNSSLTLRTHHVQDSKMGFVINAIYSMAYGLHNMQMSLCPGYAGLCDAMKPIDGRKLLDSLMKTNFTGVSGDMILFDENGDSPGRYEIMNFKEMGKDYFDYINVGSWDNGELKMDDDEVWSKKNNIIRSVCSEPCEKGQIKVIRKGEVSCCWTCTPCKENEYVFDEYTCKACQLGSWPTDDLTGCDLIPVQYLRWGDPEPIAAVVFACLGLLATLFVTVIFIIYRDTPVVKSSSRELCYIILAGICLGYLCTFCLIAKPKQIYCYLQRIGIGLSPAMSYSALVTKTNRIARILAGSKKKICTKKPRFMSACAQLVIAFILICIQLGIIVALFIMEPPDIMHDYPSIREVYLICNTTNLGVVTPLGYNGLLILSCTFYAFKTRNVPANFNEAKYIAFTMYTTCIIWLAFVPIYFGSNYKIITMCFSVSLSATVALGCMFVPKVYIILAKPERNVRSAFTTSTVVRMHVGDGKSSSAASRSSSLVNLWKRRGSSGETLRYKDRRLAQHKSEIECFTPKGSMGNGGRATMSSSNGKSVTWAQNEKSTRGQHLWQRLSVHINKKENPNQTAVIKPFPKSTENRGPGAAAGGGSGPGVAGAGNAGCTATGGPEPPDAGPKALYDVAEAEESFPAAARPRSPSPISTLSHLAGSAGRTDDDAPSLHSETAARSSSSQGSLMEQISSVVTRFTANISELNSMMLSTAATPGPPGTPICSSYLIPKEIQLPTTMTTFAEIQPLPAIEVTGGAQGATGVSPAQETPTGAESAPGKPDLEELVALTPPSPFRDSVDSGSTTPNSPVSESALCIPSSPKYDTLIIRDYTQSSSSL
Type: cell-based
Protocol: Functional Calcium Clux Assay Methodology
For functional assays, HEK293 cells stably expressing recombinant rat mGluR5 were seeded in 384-well plates and dye loaded using Fluo-8. Cells were then washed to remove the un-incorporated dye. Antagonist evaluation was performed following a 15 min incubation of the test compound followed by the addition of submaximal concentration of glutamate. Intracellular calcium ([Ca^2+]i) measurements were performed using a fluorometric imaging plate reader (FLIPR, Molecular Devices). The glutamate-evoked increase in [Ca^2′]i in the presence of the test compounds was compared to the response to glutamate alone (the positive control). Antagonist inhibition curves were fitted with a 4-parameter logistic equation giving IC50 values, and Hill coefficients using an iterative nonlinear curve fitting algorithm.
The tables below provide IC50 data in this assay. In the activity column, A=IC50>1,000 and ≤5,000 nM; B=IC50>500 and ≤1,000 nM and C=IC50≤500 nM.
With FC(F)(F)Oc1ccc(-n2cc(C#Cc3ccccn3)c(Cl)n2)cc1 [Compound 40, 2-((3-chloro-1-(4-(trifluoromethoxy)phenyl)-1H-pyrazol-4-yl)ethynyl)pyridine] the IC50 was no more than 0.5 µM.
FC(F)(F)Oc1ccc(-n2cc(C#Cc3ncccn3)c(Cl)n2)cc1 [Compound 41, 2-((3-chloro-1-(4-(trifluoromethoxy)phenyl)-1H-pyrazol-4-yl)ethynyl)pyrimidine] was tested, and the IC50 was 1 to 5 µM.
Fc1ccc(-n2cc(C#Cc3ccccn3)c(Cl)n2)cc1 [Compound 42, 2-((3-chloro-1-(4-fluorophenyl)-1H-pyrazol-4-yl)ethynyl)pyridine] was tested, and the IC50 was no more than 0.5 µM.
Work on Fc1ccc(-n2cc(C#Cc3ncccn3)c(Cl)n2)cc1 [Compound 43, 2-((3-chloro-1-(4-fluorophenyl)-1H-pyrazol-4-yl)ethynyl)pyrimidine] yielded an IC50 of no more than 0.5 µM.
Fc1cncc(-n2cc(C#Cc3ccccn3)c(Cl)n2)c1 [Compound 44, 3-(3-chloro-4-(pyridin-2-ylethynyl)-1H-pyrazol-1-yl)-5-fluoropyridine] gave an IC50 of no more than 0.5 µM.
Fc1cncc(-n2cc(C#Cc3ncccn3)c(Cl)n2)c1 [Compound 45, 2-((3-chloro-1-(5-fluoropyridin-3-yl)-1H-pyrazol-4-yl)ethynyl) pyrimidine] was tested, and the IC50 was 1 to 5 µM.
For CS(=O)(=O)c1ccc(-n2cc(C#Cc3ccccn3)cn2)cc1 [Compound 46, 2-((1-(4-(methylsulfonyl)phenyl)-1H-pyrazol-4-yl)ethynyl)pyridine], the IC50 was 0.5 to 1 µM.
N#Cc1cc(F)cc(-n2cc(C#Cc3ccccn3)c(OC(F)F)n2)c1 [Compound 47, 3-(3-(difluoromethoxy)-4-(pyridin-2-ylethynyl)-1H-pyrazol-1-yl)-5-fluorobenzonitrile] was tested, and the IC50 was no more than 0.5 µM.
N#Cc1cc(F)cc(-n2cc(C#Cc3ccccn3)c(OCCO)n2)c1 [Compound 48, 3-fluoro-5-(3-(2-hydroxyethoxy)-4-(pyridin-2-ylethynyl)-1H-pyrazol-1-yl)benzonitrile] was tested, and the IC50 was no more than 0.5 µM.
Fc1ccc(-n2cc(C#Cc3ccccn3)c(Cl)n2)nc1 [Compound 49, 2-(3-chloro-4-(pyridin-2-ylethynyl)-1H-pyrazol-1-yl)-5-fluoropyridine] gave an IC50 of no more than 0.5 µM.
With Cc1c(C#Cc2ccccn2)cnn1-c1cc(F)cc(C#N)c1 [Compound 50, 3-fluoro-5-(5-methyl-4-(pyridin-2-ylethynyl)-1H-pyrazol-1-yl) benzonitrile] the IC50 was no more than 0.5 µM.
COc1c(C#Cc2ccccn2)cnn1-c1ccc(F)cc1 [Compound 51, 2-((1-(4-fluorophenyl)-5-methoxy-1H-pyrazol-4-yl)ethynyl)pyridine] was tested, and the IC50 was no more than 0.5 µM.
Compound COc1nn(-c2ccc(F)cc2)cc1C#Cc1ccccn1 [Compound 52, 2-((1-(4-fluorophenyl)-3-methoxy-1H-pyrazol-4-yl)ethynyl)pyridine] has an IC50 of no more than 0.5 µM.
Work on CN(C)CCOc1nn(-c2cc(F)cc(C#N)c2)cc1C#Cc1ccccn1 [Compound 53, 3-(3-(2-(dimethylamino)ethoxy)-4-(pyridin-2-ylethynyl)-1H-pyrazol-1-yl)-5-fluorobenzonitrile] yielded an IC50 of 1 to 5 µM.
Compound N#Cc1cc(F)cc(-n2cc(C#Cc3ccccn3)c(C3CC3)n2)c1 [Compound 54, 3-(3-cyclopropyl-4-(pyridin-2-ylethynyl)-1H-pyrazol-1-yl)-5-fluorobenzonitrile] has an IC50 of no more than 0.5 µM.
N#Cc1cc(F)cc(-n2cc(C#Cc3ncccn3)c(C3CC3)n2)c1 [Compound 55, 3-(3-cyclopropyl-4-(pyrimidin-2-ylethynyl)-1H-pyrazol-1-yl)-5-fluorobenzonitrile] gave an IC50 of no more than 0.5 µM.
COCCOc1c(C#Cc2ccccn2)cnn1-c1ccc(F)cc1 [Compound 56] gave an IC50 of no more than 0.5 µM.
Work on CS(=O)(=O)c1ccc(-n2cc(C#Cc3ccccn3)c(Cl)n2)cc1 [Compound 58, 2-((3-chloro-1-(4-(methylsulfonyl)phenyl)-1H-pyrazol-4-yl)ethynyl)pyridine] yielded an IC50 of 1 to 5 µM.
